# Experimental data reported in patent US6929667B2, “Method for the fluorescent whitening of cotton” (Ciba Specialty Chemicals Corporation, priority 2000, dated 2005).
# Assays:
# [1] = Determination of fibre affinity: Ganz whiteness of bleached cotton after exhaust treatment at 95° C.; details: for Whiteness Value: Ganz whiteness, 0.2% whitener on fibre weight, exhaust method, liquor ratio 1:40, up to 95° C., measure of affinity to cotton
# Experimental: Various bleached cotton swatches are treated by the exhaust method in an aqueous bath having the following composition: • 0.2% of test fluorescent whitener (100% active substance), based on the weight of the fibre, • 0.5 ml/l Ultravon EL™, • 20 ml/l 3% aqueous sodium hydroxide solutions, • 2 ml/l 10% aqueous sodium silicate solution and • 3 ml/l 35% aqueous hydrogen peroxide solution.
# The fluorescent whiteners used were compounds (102)-(104) of the present invention and a commercial product having the formula [drawing 11]
# The treatment is conducted at a liquor ratio of 1:40 for 30 minutes at from 25 to 95° C., then for a further 60 minutes at 95° C. and, finally, cooled to 30° C. The swatches are removed from the treatment bath, rinsed and dried at 60° C.
# Due to the high application temperature of 95° C., the tested compounds must have high affinity to cotton to provide high whiteness levels. Consequently, the whiteness values are a suitable measure of affinity, i.e. high whiteness corresponds to high affinity.
# Whiteness was measured according to the method of Ganz, which is described in detail in the Ciba-Geigy Review, 1973/1 and also in the article “Whiteness Measurement”, ISCC Conference on Fluorescence and the Colorimetry of Fluorescent Materials, Williamsburg, February 1972, published in the Journal of Color and Appearance, 1, No. 5 (1972).
# [2] = Determination of pH stability: appearance of 0.8 g/l solution at different pH values on storage; type: physicochemical; details: 0.8 g/l in drinking water, dark, 25° C.
# Experimental: (§1) The sensitivity of the test compounds (102)-(104) of the invention and of the commercial compound (103) to acidic pH values is evaluated in a bath and on the cotton fabric.
# (§2) A solution containing 0.8 g/l of the test compound (as active ingredient) in drinking water (approximately 11° German hardness) is prepared and separate samples of the solution are adjusted to different pH values and stored in the dark at 25° C. The appearance of each sample is assessed immediately and also after 1, 2 and 4 hours storage.
# [3] = Determination of pH stability: Ganz whiteness of bleached cotton padded with the stored solutions; details: liquor pick-up 65%
# Experimental: as §1, §2
# Following the 4 hour appearance assessment, separate samples of bleached cotton are padded with the respective solutions (liquor pick-up 65%). The fabric samples are dried at 70° C. for 20 minutes and the whiteness values determined according to the method of Ganz.
# [4] = cotton padded with pH 3 solution after 4 hours storage
# [5] = cotton padded with pH 4 solution after 4 hours storage
# [6] = cotton padded with pH 5 solution after 4 hours storage
# [7] = cotton padded with pH 6 solution after 4 hours storage
# [8] = cotton padded with pH 7 solution after 4 hours storage
SMILES,Whiteness Value [1],"Appearance of solution ([2]; 1 hour, pH 4)","Appearance of solution ([2]; 1 hour, pH 5)","Appearance of solution ([2]; 1 hour, pH 6)","Appearance of solution ([2]; 1 hour, pH 7)","Appearance of solution ([2]; 2 hours, pH 4)","Appearance of solution ([2]; 2 hours, pH 5)","Appearance of solution ([2]; 2 hours, pH 6)","Appearance of solution ([2]; 2 hours, pH 7)","Appearance of solution ([2]; 4 hours, pH 4)","Appearance of solution ([2]; 4 hours, pH 5)","Appearance of solution ([2]; 4 hours, pH 6)","Appearance of solution ([2]; 4 hours, pH 7)","Appearance of solution ([2]; Immediate, pH 5)","Appearance of solution ([2]; Immediate, pH 6)","Appearance of solution ([2]; Immediate, pH 7)","Whiteness [3, 4]","Whiteness [3, 5]","Whiteness [3, 6]","Whiteness [3, 7]",also measured
CC(O)CN(CC(C)O)c1nc(Nc2ccc(S(=O)(=O)CCO)cc2)nc(Nc2ccc(/C=C/c3ccc(Nc4nc(Nc5ccc(S(=O)(=O)CCO)cc5)nc(N(CC(C)O)CC(C)O)n4)cc3S(=O)(=O)[O-])c(S(=O)(=O)[O-])c2)n1.[Na+].[Na+] (stereo not drawn) [(102)],234,clear,clear,clear,clear,clear,clear,clear,clear,clear,clear,clear,clear,clear,clear,clear,171,192,194,193,"Affinity to the fibre (judged from whiteness value) ([1]; whiteness only slightly lower than that of the conventional commercial FWA): high affinity to the fibre; Appearance of solution ([2]; Immediate, pH 4): clear; Whiteness [3, 8]: 193"
O=S(=O)([O-])c1cc(Nc2nc(Nc3ccc(S(=O)(=O)CCO)cc3)nc(N(CCO)CCO)n2)ccc1/C=C/c1ccc(Nc2nc(Nc3ccc(S(=O)(=O)CCO)cc3)nc(N(CCO)CCO)n2)cc1S(=O)(=O)[O-].[Na+].[Na+] [(103)],224,cloudy,clear,clear,clear,cloudy,clear,clear,clear,cloudy,clear,clear,clear,clear,clear,clear,53,115,160,184,"Appearance of solution ([2]; 1 hour, pH 3): cloudy; Appearance of solution ([2]; 2 hours, pH 3): cloudy; Appearance of solution ([2]; 4 hours, pH 3): cloudy; Appearance of solution ([2]; Immediate, pH 3): cloudy; Whiteness [3, 8]: 186"
